According to patent publication US11214803B2, “Modulators of YAP1 expression” (Ionis Pharmaceuticals, Inc., priority 2019, dated 2022):
Strand notation (5' to 3'): a small letter for the sugar, then the base; units joined by * are phosphorothioate-linked, units joined directly phosphodiester-linked; [ ] holds rarer units or linkages, { } end groups; capitals alone tell only the bases. k = constrained ethyl (cEt); [5mC] = 5-methylcytosine; d = 2'-deoxy (DNA)

Assays:
Assay type in all cases: cell-based
Yap1 mRNA [1] = assay: Dose-dependent inhibition of human Yap1 in A-431 cells (Example 6, 5,000 cells per well, RTS4814); conditions: for Yap1 mRNA, % UTC: 48 hours; for % UTC 148 nM / % UTC 444 nM / % UTC 1333 nM / % UTC 4000 nM: approximately 48 hours
Description: Modified oligonucleotides described in the studies above were tested at various doses in A-431 cells. Cultured A-431 cells at a density of 5,000 cells per well were treated using free uptake with modified oligonucleotides diluted to concentrations described in the tables below. After approximately 48 hours, Yap1 mRNA levels were measured as previously described using the Human Yap1 primer-probe set RTS4814. Yap1 mRNA levels were normalized to total RNA content, as measured by RIBOGREEN®. Results are presented in the tables below as percent control of the amount of Yap1 mRNA relative to untreated control cells (% UTC). IC50s were calculated using a linear regression on a log/linear plot of the data in excel.

Yap1 mRNA [2] = assay: Antisense inhibition of human Yap1 in A-431 cells by cEt gapmers, single dose (Example 4, RTS4814); conditions: A-431 cells, 5,000 cells per well, free uptake, 2,000 nM, approximately 48 hours, RTS4814, normalized to RIBOGREEN
Method in brief: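 A-431 cells took up 3-10-3 cEt gapmers (16-mer, full phosphorothioate, 5-methylcytosines) by free uptake at 2,000 nM for about 48 h. Yap1 mRNA was quantified by qRT-PCR, normalized to total RNA (RIBOGREEN), and reported as % of untreated control.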

Yap1 mRNA [3] = assay: Antisense inhibition of human Yap1 in SNU-449 cells by modified oligonucleotides, single dose (Example 5, RTS36584); conditions: Yap1 mRNA, percent of untreated control; modified oligonucleotides targeting SEQ ID NO: 1 and 2; Table 47
Method in brief: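 Free uptake, 2,000 nM, ~48 h, SNU-449 at 10,000 cells/well. Read-out: qRT-PCR (RTS36584), RIBOGREEN-normalised, expressed as % UTC. Asterisk = oligo hits amplicon region.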

[4] = Table 55, 148 nM, free uptake, A-431 cells 5,000 cells per well, RTS4814
[5] = Table 55, 444 nM, free uptake, A-431 cells 5,000 cells per well, RTS4814
[6] = Table 55, 1333 nM, free uptake, A-431 cells 5,000 cells per well, RTS4814
[7] = Table 55, 4000 nM, free uptake, A-431 cells 5,000 cells per well, RTS4814
[8] = Table 55, A-431 cells 5,000 cells per well, free uptake, RTS4814
[9] = Table 54, A-431 cells, Yap1 mRNA, linear regression on a log/linear plot
[10] = Table 54, A-431 cells, free uptake, 148 nM, RTS4814
[11] = Table 54, A-431 cells, free uptake, 444 nM, RTS4814
[12] = Table 54, A-431 cells, free uptake, 1333 nM, RTS4814
[13] = Table 54, A-431 cells, free uptake, 4000 nM, RTS4814
[14] = Table 53, A-431 cells, Yap1 mRNA, linear regression on a log/linear plot
[15] = Table 53, A-431 cells, free uptake, 148 nM, RTS4814
[16] = Table 53, A-431 cells, free uptake, 444 nM, RTS4814
[17] = Table 53, A-431 cells, free uptake, 1333 nM, RTS4814
[18] = Table 53, A-431 cells, free uptake, 4000 nM, RTS4814

Row | Substance | IC50 (Yap1 mRNA [1]; [9]) | % UTC 148 nM (Yap1 mRNA [1]; [10]) | % UTC 444 nM (Yap1 mRNA [1]; [11]) | % UTC 1333 nM (Yap1 mRNA [1]; [12]) | % UTC 4000 nM (Yap1 mRNA [1]; [13]) | also measured
1 | 716381 (kT*kG*kT*d[5mC]*dT*dG*dA*dT*d[5mC]*dG*dA*dT*dG*kT*kG*kA; antisense) [compound 716381] |  |  |  |  |  | Yap1 mRNA, % UTC (Yap1 mRNA [1]; [4]): 106 % UTC; Yap1 mRNA, % UTC (Yap1 mRNA [1]; [5]): 90 % UTC; Yap1 mRNA, % UTC (Yap1 mRNA [1]; [6]): 80 % UTC; Yap1 mRNA, % UTC (Yap1 mRNA [1]; [7]): 44 % UTC; IC50 (Yap1 mRNA [1]; [8]): 4.2 µM
2 | 716445 (antisense kG*kT*kA*dT*dG*dT*dG*dG*d[5mC]*dA*dA*dT*dA*kA*kT*kT) [compound 716445] | 2.6 µM | 89 % UTC | 82 % UTC | 56 % UTC | 44 % UTC | 
3 | 716577 (antisense kT*k[5mC]*kT*dG*dT*d[5mC]*dA*dG*dT*dT*dA*dT*d[5mC]*k[5mC]*kT*kA) [compound 716577] | > 4 µM | 109 % UTC | 93 % UTC | 79 % UTC | 60 % UTC | 
4 | 715471 (kT*kA*kT*d[5mC]*dT*dA*dG*d[5mC]*dT*dT*dG*dG*dT*kG*kG*k[5mC]; antisense) [compound 715471] | > 4 µM | 82 % UTC | 103 % UTC | 105 % UTC | 79 % UTC | 
5 | 716370 (k[5mC]*kA*kG*dT*dG*d[5mC]*d[5mC]*dT*dG*d[5mC]*dA*dT*d[5mC]*kA*kG*kT; antisense) [compound 716370] | > 4 µM | 81 % UTC | 79 % UTC | 69 % UTC | 49 % UTC | 
6 | 715423 (k[5mC]*k[5mC]*kA*dT*dG*dT*dT*dG*dT*dT*dG*dT*d[5mC]*kT*kG*kA; antisense) [compound 715423] |  |  |  |  |  | IC50 (Yap1 mRNA [1]; [14]): > 4 µM; % UTC 148 nM (Yap1 mRNA [1]; [15]): 83 % UTC; % UTC 444 nM (Yap1 mRNA [1]; [16]): 91 % UTC; % UTC 1333 nM (Yap1 mRNA [1]; [17]): 80 % UTC; % UTC 4000 nM (Yap1 mRNA [1]; [18]): 57 % UTC
7 | 716387 (antisense kT*kA*kT*dG*dG*dT*dT*dT*dA*dT*dA*dT*dA*kG*kT*kA) [compound 716387] |  |  |  |  |  | Yap1 mRNA, % UTC (Yap1 mRNA [1]; [4]): 94 % UTC; Yap1 mRNA, % UTC (Yap1 mRNA [1]; [5]): 94 % UTC; Yap1 mRNA, % UTC (Yap1 mRNA [1]; [6]): 80 % UTC; Yap1 mRNA, % UTC (Yap1 mRNA [1]; [7]): 67 % UTC; IC50 (Yap1 mRNA [1]; [8]): > 4 µM
8 | 716496 (antisense kG*kA*kA*dG*dA*dG*dA*dT*dT*dT*dT*dA*dT*kG*k[5mC]*k[5mC]) [compound 716496] | > 4 µM | 74 % UTC | 87 % UTC | 64 % UTC | 49 % UTC | 
9 | 715508 (k[5mC]*kT*kG*dT*dG*d[5mC]*dT*dG*dG*dG*dA*dT*dT*kG*kA*kT; antisense) [compound 715508] |  |  |  |  |  | IC50 (Yap1 mRNA [1]; [14]): 3.5 µM; % UTC 148 nM (Yap1 mRNA [1]; [15]): 78 % UTC; % UTC 444 nM (Yap1 mRNA [1]; [16]): 70 % UTC; % UTC 1333 nM (Yap1 mRNA [1]; [17]): 67 % UTC; % UTC 4000 nM (Yap1 mRNA [1]; [18]): 43 % UTC
10 | 1074755 (CACTTTTACATTAGGA; antisense; chemistry not fully specified) [Compound 1074755] |  |  |  |  |  | YAP1 (% UTC) (Yap1 mRNA [2]; Table 17, Yap1 mRNA relative to untreated control cells): 3 % UTC; YAP1 (% UT) (Yap1 mRNA [3]): 23 % UT
11 | 1074464 (kT*kT*kA*dG*dA*dG*dT*dA*dT*dG*dT*dG*dG*k[5mC]*kA*kA) [Compound 1074464] |  |  |  |  |  | YAP1 (% UTC) (Yap1 mRNA [2]; Table 14, Yap1 mRNA relative to untreated control, * = targets amplicon region of primer probe set): 2 % UTC; YAP1 (% UT) (Yap1 mRNA [3]): 5 % UT
